Results as given in patent US11639503B2, “Anti-chymase aptamer and use for same” (RIBOMIC INC., priority 2017, dated 2023).

Target: T1, chymase purified from human skin mast cell (native, Calbiochem) (Homo sapiens, UniProt P23946)
T1 construct: Here, the native is chymase purified from human skin mast cell; purchased Calbiochem; host or cells: human skin mast cell (tissue-derived)
T1 sequence (P23946 22-247): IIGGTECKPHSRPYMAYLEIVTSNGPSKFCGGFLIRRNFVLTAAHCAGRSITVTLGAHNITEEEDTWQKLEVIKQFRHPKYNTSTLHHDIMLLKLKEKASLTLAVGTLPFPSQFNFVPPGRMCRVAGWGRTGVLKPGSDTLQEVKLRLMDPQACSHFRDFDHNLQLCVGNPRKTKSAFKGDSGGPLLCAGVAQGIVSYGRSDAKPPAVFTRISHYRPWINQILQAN
Assay: chymase enzyme activity inhibition, native substrate angiotensin I (His-Leu fluorescence)
Assay type: biochemical
Conditions: Table 3; angiotensin I as substrate; mean of 2 or 3 measurements; >1 = no inhibitory activity up to 1 μM
Method: A second method of evaluation employs a native substrate. A useful native substrate for chymase is angiotensin I. Here, His-Leu, a peptide fragment released upon degradation of angiotensin I, is fluorescently derivatized, and the fluorescence intensity therefrom is quantified.
In the assay, an enzyme reaction is carried out in 50 μL of solution C. First, 0.3-0.75 ng of chymase (recombinant, manufactured by SIGMA; or native, manufactured by Calbiochem) is diluted in solution C to obtain 5 μL chymase solution. Each nucleic acid is prepared in solution C to obtain 25 μL solutions. 5 μL of each chymase dilution and 25 μL of each nucleic acid solution are mixed, and then the mixture is incubated at 37° C. for 5 minutes. Separately, 20 μL of 125 μM angiotensin I (manufactured by Peptide Institute, Inc.) is prepared in solution C and incubated at 37° C. for 5 minutes. The angiotensin I solution is added to the mixture of chymase and nucleic acid, and the enzyme reaction is initiated. After the reaction was allowed to proceed at 37° C. for 90 minutes, 25 μL of ice-cooled 30% trichloroacetic acid solution is added to terminate the reaction. The entire mixture is centrifuged at 4° C., 14000 rpm for 10 minutes, and 30 μL of the resulting supernatant is used for the subsequent reaction for fluorescent derivatization.
After 30 μL of the supernatant is added to a 96-well plate (Black, manufactured by Costar), 15 μL of 2% o-phthalaldehyde (manufactured by SIGMA) solution in methanol and 170 μL of 0.3M NaOH solution are mixed in each well, and the plate is allowed to stand at room temperature for 10 minutes. Subsequently, 25 μL of 3M HCl solution is added to terminate the reaction. The plate is set to the microplate reader SpectraMax190 (manufactured by Molecular Devices Corporation), and the fluorescence intensity is determined at an excitation wavelength of 355 nm and a fluorescence wavelength of 460 nm.
For control, samples are treated and analyzed in the same manner in two cases: use of SEQ ID NO: 58 (negative control) and use of chymostatin, a known chymotrypsin-like serine protease inhibitor (positive control). In both cases, fluorescence intensity obtained at 0 minute reaction time serves as a blank determination. Taking the fluorescence intensity detected with the addition of an equal volume of solution C, in place of each nucleic acid, in the chymase enzyme reaction as 100%, the inhibitory rate for each test substance is calculated, and the inhibitor concentration required to cause a 50% inhibition of the enzyme activity (IC50) is determined.
Whether the nucleic acids shown by SEQ ID NO: 9 and 10 inhibit the enzyme activity of chymase was determined by the following method. Angiotensin I is converted by chymase to angiotensin II, during which a peptide fragment His-Leu is released. Since the peptide His-Leu is fluorescently derivatized by o-phthalaldehyde, its fluorescence intensity can be quantitatively measured.
The total volume of solution for an enzyme reaction in the assay was set to 50 μL, and the reaction was performed in solution C buffer. At first, native (manufactured by Calbiochem) was diluted with solution C to give 5 μL thereof. Here, the native is chymase purified from human skin mast cell. The nucleic acid was serially diluted with solution C at a concentration of 0.0027-2 μM to give 25 μL thereof. The chymase solution (5 μL) and the nucleic acid solution (25 μL) were mixed, and the mixture was incubated at 37° C. for 5 min. On the other hand, […] angiotensin I (manufactured by PEPTIDE INSTITUTE, INC.) was prepared in solution C to give 20 μL thereof, which was incubated at 37° C. for 5 min. The angiotensin I solution was added to a mixture of chymase and nucleic acid to start an enzyme reaction. The final chymase concentration of the reaction solution was 0.5 nM, and the final substrate concentration was 50 μM. […]

Row | Substance | IC50
1 | 11 (GGGUCAGAUGAUCGGACAUAACAUUGUUGGGGUGUCAAGGCCC; 2'-fluoro at CU, RNA at AG, backbone not given here) [compound 11] | 54.7 nM
2 | 12 (GACAUAACAUUGUUGGGGUGUC; 2'-fluoro at CU, RNA at AG, backbone not given here) [compound 12] | > 1000 nM
3 | 13 (GGACAUAACAUUGUUGGGGUGUCAAGG; 2'-fluoro at CU, RNA at AG, backbone not given here) [compound 13] | > 1000 nM
4 | 14 (GGCAGAUGAUCGGACAUAACAUUGUUGGGGUGUCAAGCC; 2'-fluoro at CU, RNA at AG, backbone not given here) [compound 14] | 6.8 nM
5 | 15 (GAUGAUCGGACAUAACAUUGUUGGGGUGUCAAGCC; 2'-fluoro at CU, RNA at AG, backbone not given here) [compound 15] | 1.4 nM
6 | 16 (GGCAGAUGAUCGGACAUAACAUUGUUGGGGUGUCAA; 2'-fluoro at CU, RNA at AG, backbone not given here) [compound 16] | 2 nM
7 | 17 (GAUGAUCGGACAUAACAUUGUUGGGGUGUCAA; 2'-fluoro at CU, RNA at AG, backbone not given here) [compound 17] | 1.4 nM
8 | 18 (UGAUCGGACAUAACAUUGUUGGGGUGUCAA; 2'-fluoro at CU, RNA at AG, backbone not given here) [compound 18] | 2.1 nM
9 | 19 (AUCGGACAUAACAUUGUUGGGGUGUCAA; 2'-fluoro at CU, RNA at AG, backbone not given here) [compound 19] | 14.4 nM
10 | 20 (GAUGAUCGGACAUAACAUUGUUGGGGUGUCA; 2'-fluoro at CU, RNA at AG, backbone not given here) [compound 20] | 1.8 nM

Same assay, conditions: Table 4; angiotensin I as substrate; mean of 2 or 3 measurements

Row | Substance | IC50
11 | 17 (GAUGAUCGGACAUAACAUUGUUGGGGUGUCAA; 2'-fluoro at CU, RNA at AG, backbone not given here) [compound 17] | 1.4 nM
12 | 17(1) (GAUGAUCGGACAUAACAUUGUUGGGGUGUCAA; 2'-O-methyl, idT end and other modifications, positions not given here) | 44.4 nM
13 | 17(2) (GAUGAUCGGACAUAACAUUGUUGGGGUGUCAA; aptamer; 2'-O-methyl, idT end and other modifications, positions not given here) | 0.21 nM
14 | 17(3) (GAUGAUCGGACAUAACAUUGUUGGGGUGUCAA; aptamer; 2'-O-methyl, idT end and other modifications, positions not given here) | 5.66 nM
15 | 17(4) (GAUGAUCGGACAUAACAUUGUUGGGGUGUCAA; aptamer; 2'-O-methyl, idT end and other modifications, positions not given here) | 0.2 nM
16 | 17(5) (GAUGAUCGGACAUAACAUUGUUGGGGUGUCAA; aptamer; 2'-O-methyl, idT end and other modifications, positions not given here) | 0.17 nM
17 | 17(6) (GAUGAUCGGACAUAACAUUGUUGGGGUGUCAA; aptamer; 2'-O-methyl, idT end and other modifications, positions not given here) | 0.14 nM
18 | 17(7) (GAUGAUCGGACAUAACAUUGUUGGGGUGUCAA; aptamer; 2'-O-methyl, idT end and other modifications, positions not given here) | 0.17 nM
19 | 17(8) (GAUGAUCGGACAUAACAUUGUUGGGGUGUCAA; aptamer; 2'-O-methyl, idT end and other modifications, positions not given here) | 0.13 nM
20 | 17(9) (GAUGAUCGGACAUAACAUUGUUGGGGUGUCAA; aptamer; 2'-O-methyl, idT end and other modifications, positions not given here) | 0.16 nM
21 | 17(10) (GAUGAUCGGACAUAACAUUGUUGGGGUGUCAA; aptamer; 2'-O-methyl, idT end and other modifications, positions not given here) | 0.13 nM
22 | 17(11) (GAUGAUCGGACAUAACAUUGUUGGGGUGUCAA; aptamer; 2'-O-methyl, idT end and other modifications, positions not given here) | 0.14 nM
23 | 17(15) (GAUGAUCGGACAUAACAUUGUUGGGGUGUCAA; aptamer; 2'-O-methyl, idT end and other modifications, positions not given here) | 0.13 nM
24 | 17(16) (GAUGAUCGGACAUAACAUUGUUGGGGUGUCAA; aptamer; 2'-O-methyl, idT end and other modifications, positions not given here) | 0.18 nM
25 | 17(17) (GAUGAUCGGACAUAACAUUGUUGGGGUGUCAA; aptamer; 2'-O-methyl, idT end and other modifications, positions not given here) | 0.19 nM
26 | 17(18) (GAUGAUCGGACAUAACAUUGUUGGGGUGUCAA; aptamer; 2'-O-methyl, idT end and other modifications, positions not given here) | 0.15 nM
27 | 17(19) (GAUGAUCGGACAUAACAUUGUUGGGGUGUCAA; aptamer; 2'-O-methyl, idT end and other modifications, positions not given here) | 0.19 nM
28 | 17(20) (GAUGAUCGGACAUAACAUUGUUGGGGUGUCAA; aptamer; 2'-O-methyl, idT end and other modifications, positions not given here) | 0.18 nM
29 | 17(21) (GAUGAUCGGACAUAACAUUGUUGGGGUGUCAA; aptamer; 2'-O-methyl, idT end and other modifications, positions not given here) | 0.19 nM
30 | 17(22) (GAUGAUCGGACAUAACAUUGUUGGGGUGUCAA; aptamer; 2'-O-methyl, idT end and other modifications, positions not given here) | 0.17 nM
31 | 17(23) (GAUGAUCGGACAUAACAUUGUUGGGGUGUCAA; aptamer; 2'-O-methyl, idT end and other modifications, positions not given here) | 0.16 nM
32 | 17(24) (GAUGAUCGGACAUAACAUUGUUGGGGUGUCAA; aptamer; 2'-O-methyl, idT end and other modifications, positions not given here) | 0.19 nM
33 | 17(25) (GAUGAUCGGACAUAACAUUGUUGGGGUGUCAA; 2'-O-methyl, idT end and other modifications, positions not given here) | 0.2 nM

Same assay, conditions: Table 6; angiotensin I as substrate; mean of 2 or 3 measurements

Row | Substance | IC50
34 | 17 (GAUGAUCGGACAUAACAUUGUUGGGGUGUCAA; 2'-fluoro at CU, RNA at AG, backbone not given here) [compound 17] | 1.4 nM
35 | 33 (AUGAUCGGACAUAACUAAUUAGGGGUGUCAA; aptamer; listed as RNA, chemistry not fully specified) [compound 33] | 0.21 nM
36 | 33(1) (AUGAUCGGACAUAACUAAUUAGGGGUGUCAA; aptamer; modified variant with 2'-O-methyl and end modifications, pattern not given here) | 0.074 nM
37 | 33(2) (AUGAUCGGACAUAACUAAUUAGGGGUGUCAA; aptamer; modified variant with 2'-O-methyl and end modifications, pattern not given here) | 0.078 nM
